The record followed here is PMC6270996, “Capsaicin: A Potent Inhibitor of Carbonic Anhydrase Isoenzymes” (Molecules, 2014).

For assay [1], the target named is T1, human carbonic anhydrase II (hCA II) (Homo sapiens, UniProt P00918).
T1 construct: gene CA2; native enzyme purified from human erythrocytes
In words: esterase assay (p-nitrophenyl acetate hydrolysis, […] nm), Lineweaver-Burk. The assay is classed as biochemical.

Assay [2] deals with T2, human carbonic anhydrase I (hCA I) (Homo sapiens, UniProt P00915).
T2 construct: gene CA1; native enzyme purified from human erythrocytes
T2 sequence (P00915 2-261): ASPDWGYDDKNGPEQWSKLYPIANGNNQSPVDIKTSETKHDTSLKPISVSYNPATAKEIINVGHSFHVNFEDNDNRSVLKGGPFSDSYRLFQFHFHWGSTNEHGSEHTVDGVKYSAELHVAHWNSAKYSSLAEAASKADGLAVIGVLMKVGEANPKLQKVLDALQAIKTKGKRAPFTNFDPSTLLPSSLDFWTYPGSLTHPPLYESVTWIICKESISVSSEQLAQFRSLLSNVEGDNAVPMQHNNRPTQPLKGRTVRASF
The description is as above. The assay is classed as biochemical.

With `COc1cc(CNC(=O)CCCC/C=C/C(C)C)ccc1O` [capsaicin, trans-8-methyl-N-vanillyl-6-nonenamide], the Ki in assay [1] worked out at 208 ± 14.4 µM; in assay [2] it was 696 ± 59.4 µM.

One may read the Ki as the dissociation constant of the complex between target and ligand, obtained from inhibition or displacement.
